# According to patent USRE37770E1, “Treatment of skin conditions by use of PPARα activators” (The Regents of the University of California, priority 1997, dated 2002):
# Tests used:
# involucrin mRNA [1] = assay: Involucrin mRNA in keratinocytes by Northern Blot; type: cell-based, Human; settings: for involucrin (INV) mRNA level compared to the vehicle alone: low calcium (0.03 mM), 24 hours, 10 μM
# Description: (§1) Human keratinocyte cells were incubated in culture containing calcium at a concentration of 0.03 mM Ca^++ (a level that is too low to induce differentiation). Also included in the culture medium were clofibrate at 400 μM or ETYA at 10 μM and 20 μM, while separate cell cultures were maintained as controls with neither clofibrate nor ETYA. The production of mRNA for both involucrin and transglutaminase was measured at intervals over a 48-hour time period (0, 6, 12, 24, and 48 hours) by Northern Blot analysis. In each case, the lighter bars represent the control cells and the darker bars the cells incubated in the clofibrate-containing medium. The degree of mRNA generated is expressed as a percent of the control at zero hours.
# (§2) Human epidermis was isolated from newborn foreskins and keratinocytes were plated in serum-free keratinocyte growth medium (“KGM”; Clonetics, San Diego, Calif. USA), using conventional techniques. Cells were treated with either the test compounds in vehicle or vehicle alone (<0.1% ethanol) for 24 or 48 hours. The test compounds were obtained from Sigma Chemical Co. (St. Louis. Mo. USA) and were stored as 15 mM stock solutions at −20° C. Mevalonate was solubilized in sterile water.
# (§3) Total RNA was isolated by using TRIZOL (Sigma Chemical Co.), following the manufacturer's protocol. Ethanol-precipitate RNA pellets were suspended in sterile, diethylpyrocarbonate (DEPC)-treated water, and RNA was quantified by absorbance at 260 nm using the 260/280 nm ratio as an index of purity. RNA (15 μg per sample) was size fractionated through a 1% agarose gel containing 2.2 M formaldehyde. RNA integrity was visualized following acridine orange staining of the gel following electrophoresis. The RNA was transfered to a nylon membrane that was subsequently baked at 80° C. for 2 hours. Blots were hybridized with the appropriate ^32p-labeled probe overnight at 65° C. Washes were then performed in a solution containing 0.1% SSC and 0.1% sodium dedecyl sulfate (SDS) for 20 minutes at room temperature, followed by a 20-minute wash at 65° C. Autoradiography was performed at −70° C. Blots were probed with β-actin to confirm equal loading. Appropriate bands were quantified by densitometry.
# (§4) Northern blot analyses were performed on keratinocytes maintained in low calcium (0.03 mM) and incubated for 24 hours in the presence of vehicle alone (<0.1% ethanol) or vehicle containing 25-hydroxycholesterol (10 μM), 22(R)-hydroxycholesterol (10 μM) cholesterol (10 μM), or mevalonate (500 μM) (individually). The mRNA levels of involucrin (“INV”) and transglutaminase (“TG'ase”) are shown in the bar graph of FIG. 14a, the INV indicated by clear bars and the TG'ase by shaded bars, both with error limits shown.
# transglutaminase mRNA [2] = assay: Transglutaminase mRNA in keratinocytes by Northern Blot; type: cell-based, Human; settings: for transglutaminase (TG'ase) mRNA level compared to the vehicle alone: low calcium (0.03 mM), 24 hours, 10 μM
# Description: as §1, §2, §3, §4
# involucrin protein = assay: Involucrin protein level in keratinocytes by Western Blot; type: cell-based, Human; settings: for increase in INV protein: high calcium (1.2 mM), 15 μM; for INV protein level relative to the control: low calcium (0.03 mM), 24 hours
# Description: Measurements of the level of the involucrin protein itself were performed in the culture medium by Western Blot. Various incubations were performed, in media containing clofibrate at concentrations ranging from 0 (vehicle only) to 400 μM and calcium ion at both 0.03 mM and 1.2 mM. The results are shown in FIG. 9a for tests with calcium ion at 0.03 mM, and in FIG. 9b for tests with calcium ion at 1.2 mM. In these figures, the protein contents are expressed as percents of the respective measurements taken from media incubated for the same period of time but in the absence of clofibrate.
# The procedures of Example 8 were followed, and measurements were taken on the involucrin protein levels from cells incubated at various concentrations of farnesol and juvenile hormone III ranging from 0 (vehicle only) to 15 μM, in media containing 0.03 mM and 1.2 mM calcium ion, for 24 hours. The results are shown in FIG. 10 for farnesol and FIG. 11 for juvenile hormone III, in 0.03 mM Ca^++.
# Protein concentration was assessed by protein electrophoresis and Western blotting. Cells were lysed is 2% SDS and the lysate sonicated. Protein determinations were made by use of a Bicinchoninic add protein assay (Pierce Chemical Company, Rockford, Ill. USA). Following protein determination, equal amounts at protein (50 μg) were separated by electrophoresis an 7.5% polyacrylamide gels and electroblotted onto polyvinylidene […] membranes (0.2-μ, obtained from Bio-Rad Laboratories Hercules, Calif., USA). Involucrin protein was detected by incubation over-night at 4° C. C. with a polyclonal rabbit anti-human involucrin antibody (1:1000 dilution). The involucrin-specific bands on the autoradiograms were quantitated by densitometry by densitometry. Transglutaminase protein expression was measured in a similar mmaner, using stacking, sample and running buffers containing 4 M urea, and the gels following electrophoresis were washed in 4 M urea, 25 mM TRIS-HCl, pH 7.4, 7.5 mM NaCl, 0.1 mM dithiothreitol (DTT), and 2 mM ethylenediamine tetraacetic acid for 90 minutes prior to electoblotting, allowing the transglutaminase to be detected by antibody. Specific bands on the autoradiograms were quantified by densitometry.
# transglutaminase protein = assay: Transglutaminase protein level in keratinocytes by Western blotting; type: cell-based, Human; settings: for TG'ase protein level relative to the control: low calcium (0.03 mM), 24 hours
# Description: Protein concentration was assessed by protein electrophoresis and Western blotting. Cells were lysed is 2% SDS and the lysate sonicated. Protein determinations were made by use of a Bicinchoninic add protein assay (Pierce Chemical Company, Rockford, Ill. USA). Following protein determination, equal amounts at protein (50 μg) were separated by electrophoresis an 7.5% polyacrylamide gels and electroblotted onto polyvinylidene […] membranes (0.2-μ, obtained from Bio-Rad Laboratories Hercules, Calif., USA). Involucrin protein was detected by incubation over-night at 4° C. C. with a polyclonal rabbit anti-human involucrin antibody (1:1000 dilution). The involucrin-specific bands on the autoradiograms were quantitated by densitometry by densitometry. Transglutaminase protein expression was measured in a similar […], using stacking, sample and running buffers containing 4 M urea, and the gels following electrophoresis were washed in 4 M urea, 25 mM TRIS-HCl, pH 7.4, 7.5 mM NaCl, 0.1 mM dithiothreitol (DTT), and 2 mM ethylenediamine tetraacetic acid for 90 minutes prior to electoblotting, allowing the transglutaminase to be detected by antibody. Specific bands on the autoradiograms were quantified by densitometry. Levels of involucrin and transglutaminase protein were measured in keratinocytes incubated in low calcium (0.03 mM) and treated with the test compounds for 24 hours. The are shown in the bar graph of FIG. 17a, where the test compounds are compared with the vehicle alone (control) and cholesterol, using the same bar indications as in FIGS 14 through 16. […] Cholesterol had no effect.
# [3] = tested on: Normal human keratinocytes; assay: Cornified envelope formation (35S incorporation) in keratinocytes; type: cell-based; settings: 10 μM, 48 hours
# keratinocytes = assay: Rate of DNA synthesis (3H-thymidine incorporation) in keratinocytes; type: cell-based, Human; settings: 10 μM, 24 hours, low calcium (0.03 mM); 16-hour 3H-thymidine period
# Description: The rate of DNA synthesis was determined by measuring the incorporation of ^3H-thymidine into cellular DNA after 16 hours of incubation with 2 μCi^3H-thymidine per mL of media (110 Ci/mmol methyl-1′,2′-^3H-thymidine (Amersham Laboratories, Arlington Heights, Ill. USA). The cells were then solubilized in 1N NaOH, and the radioactivity in the washed TCA precipitate was quantitated by scintillation spectroscopy.
# Using the procedures set forth in the Materials and Methods section above, 25-hydroxycholesterol (10 μM) and 22(R)-hydroxycholesterol (10 μM, were compared with cholesterol (10 μM) and the vehicle alone control), with treatment for 24 hours under low calcium (0.03 mM) condition. The results are shown in the bar graph of FIG. 19.
# involucrin mRNA [4] = assay: Involucrin mRNA in keratinocytes by Northern Blot; type: cell-based, Human; settings: calcium 1.2 mM, 10 μM, 24 hours
# transglutaminase mRNA [5] = assay: Transglutaminase mRNA in keratinocytes by Northern Blot; type: cell-based, Human; settings: calcium 1.2 mM, 10 μM, 24 hours
# [6] = doses 0-15.0 μM, low calcium, FIG. 15
smiles,measurement,setting,value
CC(C)CCC[C@@H](C)[C@H]1CC[C@H]2[C@@H]3CC=C4C[C@@H](O)CC[C@]4(C)[C@H]3CC[C@]12C [cholesterol],involucrin (INV) mRNA level compared to the vehicle alone,involucrin mRNA [1],neither cholesterol (“chol”) nor mevalonate (“mev”) had any effect
same,transglutaminase (TG'ase) mRNA level compared to the vehicle alone,transglutaminase mRNA [2],neither cholesterol (“chol”) nor mevalonate (“mev”) had any effect
same,increase in INV protein,involucrin protein,essentially no increase
same,INV protein level relative to the control,involucrin protein,had no effect
same,TG'ase protein level relative to the control,transglutaminase protein,had no effect
same,increase in cornified envelope (CE) formation,[3]; high calcium (1.2 mM),no increase
same,increase in cornified envelope (CE) formation,[3]; low calcium (0.03 mM),no increase
same,rate of DNA synthesis,keratinocytes,117 % of control
same,"INV mRNA level, induction",involucrin mRNA [4],no effect
same,"TG'ase mRNA level, induction",transglutaminase mRNA [5],no effect
CC(C)CC[C@@H](O)[C@@H](C)[C@H]1CC[C@H]2[C@@H]3CC=C4C[C@@H](O)CC[C@]4(C)[C@H]3CC[C@]12C [22(R)-hydroxycholesterol],EC50,"involucrin mRNA [1]; Homo sapiens, Keratinocyte, doses 0-15.0 μM, low calcium, FIG. 15, read-out: dosage of half-maximal effects on INV mRNA",~5 µM
same,dosage of maximal effects on INV mRNA,involucrin mRNA [1]; [6],10 to 15 µM
same,involucrin (INV) mRNA level compared to the vehicle alone,involucrin mRNA [1],approximate twofold increase
same,EC50,"transglutaminase mRNA [2]; Homo sapiens, Keratinocyte, doses 0-15.0 μM, low calcium, FIG. 15, read-out: dosage of half-maximal effects on TG'ase mRNA",~5 µM
same,dosage of maximal effects on TG'ase mRNA,transglutaminase mRNA [2]; [6],10 to 15 µM
same,transglutaminase (TG'ase) mRNA level compared to the vehicle alone,transglutaminase mRNA [2],approximate twofold increase
same,increase in INV protein,involucrin protein,2.8 fold
same,INV protein level relative to the control,involucrin protein,approximately 3.2 fold
same,increase in TG'ase protein level,"transglutaminase protein; high calcium (1.2 mM), 5 μM",2.1 fold
same,TG'ase protein level relative to the control,transglutaminase protein,approximately 2.8 fold
same,increase in cornified envelope (CE) formation,[3]; high calcium (1.2 mM),2.1 fold
same,increase in cornified envelope (CE) formation,[3]; low calcium (0.03 mM),1.3 fold
same,rate of DNA synthesis,keratinocytes,42 % of control
